Measurements as given in patent publication EP4813990A1, “COMPOUND FOR TREATING CANCER” (INNOLAKE BIOPHARMA (HANGZHOU) CO., LTD., priority 2023, dated 2025).

Columns and labels:
A2aR [1] = biological target: T1, A2aR (Homo sapiens, UniProt P29274); test: Inhibition of binding of A2aR to its isotopically labeled ligand
Text: (§1) Meanwhile, ILB-2109 had high selectivity for A2aR (compared with A1, A2b and A3 receptors, the selectivity was 18.9 times, 40.7 times and 3424.7 times respectively).

A1 receptor = A1 receptor (Homo sapiens, UniProt P30542); test: Adenosine receptor selectivity, A2aR compared with A1; type: binding
Sequence of A1 receptor (P30542 whole entry): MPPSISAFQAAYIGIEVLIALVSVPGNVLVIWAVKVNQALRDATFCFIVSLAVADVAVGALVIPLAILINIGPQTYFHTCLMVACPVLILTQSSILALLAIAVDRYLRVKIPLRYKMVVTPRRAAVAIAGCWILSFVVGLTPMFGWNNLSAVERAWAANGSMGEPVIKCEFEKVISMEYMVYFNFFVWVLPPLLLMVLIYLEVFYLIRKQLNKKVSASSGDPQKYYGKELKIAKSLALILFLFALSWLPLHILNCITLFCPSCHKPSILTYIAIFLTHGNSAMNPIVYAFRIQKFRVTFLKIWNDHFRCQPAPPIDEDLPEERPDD
Text: as §1

A2aR [2] = biological target: T1, A2aR; test: Antagonism of A2aR activity at the cellular level; type: cell-based
Text: as §1

Caco-2 cells = test: Caco-2 permeability; type: in vitro ADME
Plasma protein binding [3] = type: in vitro ADME; conditions: human plasma
Plasma protein binding [4] = type: in vitro ADME; conditions: one range given for CD-1 mice, Sprague-Dawley rats, Beagle dogs and cynomolgus monkeys
Plasma protein binding [5] = type: in vitro ADME; conditions: one range given for CD-1 mice, Sprague-Dawley rats, Beagle dogs and cynomolgus monkeys; remark: listed apart in the source
Plasma protein binding [6] = type: in vitro ADME; conditions: one range given for CD-1 mice, Sprague-Dawley rats, Beagle dogs and cynomolgus monkeys; remark: listed apart in the source
Plasma protein binding [7] = type: in vitro ADME; conditions: one range given for CD-1 mice, Sprague-Dawley rats, Beagle dogs and cynomolgus monkeys; remark: listed apart in the source
[8] = Single-dose toxicity study in rats; conditions: Sprague-Dawley, rat, in vivo, po; SD rats, single intragastric administration, observed for 14 days; read-out: maximum tolerated dose (MTD)
Protocol: (§2) In accordance with the relevant requirements of the Good Laboratory Practice for Non-clinical Drug Studies issued by the National Medical Products Administration of the People's Republic of China, and following the test protocol and revisions, the safety pharmacology test, single-dose toxicity, genetic toxicity, etc. of ILB-2109 were explored.
SD rats were given single intragastric administration of ILB-2109 and observed for 14 days. The single doses were 0 (vehicle), 500, 1000 and 2000 mg/kg ILB-2109. […] No abnormalities were found in body weight, food consumption, clinical examination and gross anatomy. Under the test conditions, the maximum tolerated dose (MTD) of ILB-2109 in rats was 2000 mg/kg.

[9] = Single-dose toxicity study in cynomolgus monkeys; conditions: cynomolgus monkey, in vivo, po, single intragastric administration within 24 h, observed 14 days, read-out: maximum tolerated dose (MTD)
Protocol: as §2
Cynomolgus monkeys were given single intragastric administration of 0 (vehicle), 250, 500 and 1000 mg/kg ILB-2109 and observed continuously for 14 days after single administration. […] Within 30 min ~ 4 h after administration on the day of administration, mild vomiting (a small amount of food-like vomit) occurred in medium and high-dose groups. No abnormalities were found in body weight, food consumption, body temperature, respiration, electrocardiogram, blood routine, ophthalmic examination, clinical examination, bone marrow and gross anatomy. Under the test conditions, the maximum tolerated dose (MTD) of cynomolgus monkeys given single intragastric administration of ILB-2109 within 24 h was 1000 mg/kg. The test substance had effects on digestive system (gastrointestinal function, liver function).

[10] = 4-week repeated-dose toxicity test in rats; parameters: species or system SD rats; conditions: Sprague-Dawley, rat, in vivo
Protocol: as §2
SD rats were given continuous intragastric administration of ILB-2109 at doses of 0 (vehicle), 60, 200 and 600 mg/kg for 28 consecutive days. […] WBC and #LYMPH increased or tended to increase in medium and high-dose groups; GLU decreased or tended to decrease in medium and high-dose groups; CREA and UREA increased or tended to increase in female high-dose group; GLOB increased and A/G decreased in female animals of each dose group. […] All the above changes completely recovered during the recovery period. […] ILB-2109 may have toxic effects on digestive system (liver function), blood system (granulocyte series) and urinary system (renal function) of SD rats, which can be reversed at the end of the recovery period.

[11] = 4-week repeated-dose toxicity test in cynomolgus monkeys; type: in vivo
Text: as §2
40 cynomolgus monkeys (half male and half female) were randomly divided into 4 groups with 5 animals per gender in each group, and given intragastric administration of 0 (vehicle), 20, 60 and 200 mg/kg/day ILB-2109 once a day for 28 consecutive days. […] Combined with gross observation and histopathological examination results, the cause of animal death was considered to be related to lung injury. […] All the above changes completely recovered during the recovery period. In addition, no drug-related changes were found in body temperature, respiration, electrocardiogram, ophthalmic examination and bone marrow. There was no gender difference in systemic exposure in each dose group; no obvious accumulation; the increase ratio of systemic exposure was lower than the increase ratio of dose.
Attention should be paid to the potential impact of ILB-2109 on respiratory system, blood system, endocrine system and other systems in clinical use.

CHL cells = test: Chromosome aberration test; type: cell-based; conditions: CHL cells treated at 3.2, 16.0 and 80.0 µg/mL
Text: The test observed the effect of ILB-2109 on chromosome structure and number of mammalian cells (CHL cells).

[12] = female, cynomolgus monkey, in vivo, 20 mg/kg
[13] = female, cynomolgus monkey, in vivo, 60 mg/kg
[14] = male, cynomolgus monkey, in vivo, 20 mg/kg
[15] = male, cynomolgus monkey, in vivo, 60 mg/kg

T1 sequence (P29274 whole entry): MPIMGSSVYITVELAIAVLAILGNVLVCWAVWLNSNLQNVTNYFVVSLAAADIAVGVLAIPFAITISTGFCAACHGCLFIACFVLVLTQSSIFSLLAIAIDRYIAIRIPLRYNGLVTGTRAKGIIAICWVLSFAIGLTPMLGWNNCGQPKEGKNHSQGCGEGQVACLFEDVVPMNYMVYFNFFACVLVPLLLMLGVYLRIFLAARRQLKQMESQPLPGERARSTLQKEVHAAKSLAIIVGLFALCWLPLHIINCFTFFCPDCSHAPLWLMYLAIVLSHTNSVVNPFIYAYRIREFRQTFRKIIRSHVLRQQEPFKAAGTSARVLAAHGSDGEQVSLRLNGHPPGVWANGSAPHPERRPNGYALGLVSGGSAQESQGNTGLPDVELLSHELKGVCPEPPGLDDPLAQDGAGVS

SMILES: Cc1cc(-c2c(-c3ccccc3)nc(N)n3nc(CO)nc23)cc(C(F)(F)F)n1 [ILB-2109]
- IC50 (A2aR [1]): 2.92 nM
- selectivity for A2aR compared with A1 receptor (A1 receptor): 18.9 times
- IC50 (A2aR [2]; antagonism of A2aR activity): 0.43 nM
- IC50 (A2aR [2]; tumor physiological equivalent conditions (NECA 5 µM)): 1.08 nM
- efflux transporter substrate (Caco-2 cells; Caco-2 cells): most likely a substrate of efflux transporters
- permeability in Caco-2 cells (Caco-2 cells; according to existing classification standards): high permeability
- binding rate in plasma (Plasma protein binding [3]): 95.1-95.8%
- binding rate in plasma (Plasma protein binding [4]): 87.3%-95.0%
- binding rate in plasma (Plasma protein binding [5]): 87.3%-95.0%
- binding rate in plasma (Plasma protein binding [6]): 87.3%-95.0%
- binding rate in plasma (Plasma protein binding [7]): 87.3%-95.0%
- MTD at 14 days [8]: 2000 mg/kg
- MTD at 14 days [9]: 1000 mg/kg
- AUC(0-t) ([10]; oral, female SD rats, 600 mg/kg (MTD), 4-week study, read-out: AUC0-24h): 725 µg·h/mL
- Cmax ([10]; oral, female SD rats, 600 mg/kg (MTD), 4-week study, read-out: Cmax): 69400 ng/mL
- AUC(0-t) ([10]; oral, male SD rats, 600 mg/kg (MTD), 4-week study, read-out: AUC0-24h): 481 µg·h/mL
- Cmax ([10]; oral, male SD rats, 600 mg/kg (MTD), 4-week study, read-out: Cmax): 36300 ng/mL
- NOAEL at 28 days ([10]; both sexes, po): 60 mg/kg
- MTD at 28 days ([10]; both sexes, po, SD rats, intragastric, 28 consecutive days): 600 mg/kg
- AUC(0-t) ([10]; female, 60 mg/kg): 296 µg·h/mL
- Cmax ([10]; female, 60 mg/kg): 22200 ng/mL
- AUC(0-t) ([10]; male, 60 mg/kg): 114 µg·h/mL
- Cmax ([10]; male, 60 mg/kg): 15900 ng/mL
- NOAEL at 28 days ([11]; both sexes, cynomolgus monkey, in vivo, po): 20 mg/kg
- mortality ([11]; cynomolgus monkeys, high-dose group 200 mg/kg/day, death considered related to lung injury): 1 male animal in the high-dose group was found dying 2 h after administration on D3
- HNSTD ([11]; cynomolgus monkeys, intragastric once a day, 28 consecutive days): 60 mg/kg
- AUC(0-t) [11, 12]: 61 µg·h/mL
- Cmax [11, 12]: 5010 ng/mL
- AUC(0-t) [11, 13]: 149 µg·h/mL
- Cmax [11, 13]: 11900 ng/mL
- AUC(0-t) [11, 14]: 80.2 µg·h/mL
- Cmax [11, 14]: 6580 ng/mL
- AUC(0-t) [11, 15]: 206 µg·h/mL
- Cmax [11, 15]: 14300 ng/mL
- chromosome aberration test result (CHL cells): negative
